Like-named read-outs stand apart in the source and are kept apart here.

One data set is described as follows: Depressant activity. The class given is in vivo. The following applies: result in words.
Another data set has as its system blood pressure. Description: Tests for action on the cardiovascular system: hypotensive activity (activity in method 1, rats or cats, or method 2), reported in words. The class given is in vivo, rat, cat. The following applies: standard test procedure, result in words. As to the method:
Tests for action on the cardiovascular system were conducted according to one of the following procedures:
Cats were anaesthetised with pentobarbitone sodium (30 mg/kg) and the cephalic vein, femoral and carotid arteries and trachea were cannulated. The carotid cannula was introduced into the left ventricle and the femoral cannula into the aorta. Blood pressure and heart rate were recorded from the aortic cannula and left ventricular pressure from the carotid cannula. The test compunds were administered intravenously (0.1-25.6 mg/kg).
Method 2 (hypertensive rats)
Male or female rats are rendered hypertensive by applying a figure of 8 ligature around one kidney and contralateral nephrectomy. Blood pressure stabilises at a hypertensive level after 6 weeks. Systolic pressure is measured indirectly using a Decker Caudal Plethysmograph A control group of rats is run with each group treated with drug. Each group usually consists of six rats. Drugs are usually administered by the IP or oral routes. Pressures are read prior to drug administration and at two and 24 hours thereafter.

For data set [1], the system named is blood pressure and heart rate. Description: Method 1 (rat): hypotensive activity in anaesthetised rats, i.v. The following applies: for minimal effective dose: Rattus norvegicus, iv.
Description: Rats were anaesthetised with pentobarbitone sodium (60 mg/kg) and the jugular vein, trachea and carotid artery were cannulated. […] A decrease in heart rate of more than 30% from control values was considered to be significant bradycardia.
The nature of data set [2]: Anti-inflammatory activity. The format is in vivo. The following applies: result in words.
The next data set addresses T1, histamine (Cavia porcellus, UniProt P31389).
T1 construct: from tissue
Description: Antihistamine activity by the method of Alps et al. The following applies: for antihistamine activity: result in words.

The test system of the next data set is α-adrenoceptor. Description: α-Adrenoceptor antagonism on the guinea pig aortic strip. The following applies: for α-adrenoceptor antagonism: result in words; for α-blockade pA2: Table 4. From the text: Carried out on the guinea pig aortic strip [Furchgott and Bhadrakom (1953) J. Pharmac. exp. Ther. 108, 129-143] by the method of Alps et al [Br. J. Pharmac. 1972 44, 52-62].

Where [3] appears, read: 0.25 h, read-out: Hypotensive Activity.
[4] abbreviates: Table 4, read-out: Antihistamine pA2 (converted).

T1 sequence (P31389 whole entry): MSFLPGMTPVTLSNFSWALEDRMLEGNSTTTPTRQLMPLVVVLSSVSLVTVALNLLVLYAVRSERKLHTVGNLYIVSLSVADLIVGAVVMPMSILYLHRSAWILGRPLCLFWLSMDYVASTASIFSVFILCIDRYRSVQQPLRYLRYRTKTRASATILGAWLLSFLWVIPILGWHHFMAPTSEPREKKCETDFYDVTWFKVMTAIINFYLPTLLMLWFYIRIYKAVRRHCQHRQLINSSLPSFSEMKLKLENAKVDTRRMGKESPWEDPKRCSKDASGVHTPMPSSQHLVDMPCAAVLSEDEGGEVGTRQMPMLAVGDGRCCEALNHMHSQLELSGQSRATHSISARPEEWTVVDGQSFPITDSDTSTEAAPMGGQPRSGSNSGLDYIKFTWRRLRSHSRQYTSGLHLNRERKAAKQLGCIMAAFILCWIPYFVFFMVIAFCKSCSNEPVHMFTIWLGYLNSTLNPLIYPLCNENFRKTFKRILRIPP

As to `COc1ccc(CCN2CCC(NC(=O)c3ccc4c(c3)OCO4)CC2)cc1OC` [Example 7, 1-[2-(3,4-Dimethoxyphenyl)ethyl]-4-piperonylamidopiperidine], the depressant activity entry in the data set “Depressant activity” is “depressant activity”. Moreover, the hypotensive activity entry with blood pressure is “hypotensive”. Further, the minimal effective dose in data set [1] (setting [3]) is less than 30 mg/kg.

As for `O=C(CN1CCC(NC(=O)c2ccccc2)CC1)c1ccc(Cl)c(Cl)c1` [Example 34], the depressant activity result in “Depressant activity” is “depressant activities”. In addition, the hypotensive activity entry with blood pressure was “hypotensive”. In addition, the minimal effective dose in data set [1] (setting [3]) was less than 30 mg/kg.

Turning to `COc1ccc(CCN2CCC(N)CC2)cc1OC` [Example 4, 1-[2-(3,4-Dimethoxyphenyl)ethyl]-4-aminopiperidine], the depressant activity result in the data set “Depressant activity” is “depressant activity”. The hypotensive activity entry with blood pressure is recorded as “hypotensive”.

For the compound `Nc1ccc(CCN2CCC(NC(=O)c3ccccc3)CC2)cc1` [Example 23, 1-[2-(p-Aminophenyl)ethyl]-4-benzamidopiperidine], in “Depressant activity”, the depressant activity entry is reported as “depressant activity”. In the data set with blood pressure, the hypotensive activity result is “hypotensive activity”. Besides, the minimal effective dose in data set [1] (setting [3]) was less than 30 mg/kg.

In the case of `O=C(CCCN1CCC(NC(=O)c2ccccc2)CC1)c1ccc(F)cc1` [Example 42, 4-benzamido-1-[4-(p-fluorophenyl)-4-oxobutyl]-piperidine], the anti-inflammatory activity entry in data set [2] is “anti-inflammatory activity”. Further, on histamine, the antihistamine activity entry is reported as “antihistamine”. Also, the α-adrenoceptor antagonism result in the data set on α-adrenoceptor is “α-adrenoceptor antagonist”. Also, the hypotensive activity result in the data set with blood pressure is “marked hypotensive activity”.

For `CC(=O)Nc1ccc(O)c(CN2CCC(NC(=O)c3ccccc3)CC2)c1` [Example 18, 1-(5-Acetamido-2-hydroxybenzyl)-4-benzamidopiperidine], the depressant activity result in “Depressant activity” is “depressant activity”. Moreover, the minimal effective dose in data set [1] (setting [3]) is less than 30 mg/kg.

`Cc1ccccc1NC(=O)CCN1CCC(NC(=O)c2ccccc2)CC1` [Example 16, 1-[N-(2-Methylphenyl)carbamoylethyl]-4-benzamidopiperidine]: the depressant activity entry in the data set “Depressant activity” is “depressant activity”.

Consider `O=C(NC1CCN(CCc2ccccn2)CC1)c1ccccc1` [Example 94, 1-[2-(2-Pyridyl)ethyl]-4-benzamidopiperidine], for which, on histamine, the antihistamine activity result is “antihistamine”. For the same compound, the depressant activity entry in the data set “Depressant activity” is reported as “depressant activities”. The hypotensive activity entry in the data set with blood pressure was “marked hypotensive activity”.

For the compound `O=C(NC1CCN(CCc2c[nH]c3c2ccc2ccccc23)CC1)c1ccccc1` [Example 101, 1-[2-(3-Benz[g]indolyl)ethyl]-4-benzamidopiperidine], the depressant activity entry in the data set “Depressant activity” is on record as “depressant activity”. Moreover, the hypotensive activity entry in the data set with blood pressure was “marked hypotensive activity”. In data set [1] (setting [3]), the minimal effective dose was 6.4 to 12.8 mg/kg.

In the case of `O=C(CN1CCC(NC(=O)c2ccccc2)CC1)c1ccccc1` [Example 10, 1-Phenacyl-4-benzamidopiperidine], the “α-blockade pA2” value in the data set with α-adrenoceptor is reported as 5.8. Moreover, in “Depressant activity”, the depressant activity entry was “depressant activity”. For the same compound, the hypotensive activity result in the data set with blood pressure is on record as “hypotensive”. Further, the minimal effective dose in data set [1] (setting [3]) is 6.4 to 12.8 mg/kg.

With `O=C(NC1CCN(Cc2ccc3c(c2)OCO3)CC1)c1ccccc1` [Example 47, 4-Benzamido-1-(3,4-methylenedioxybenzyl)piperidine], the anti-inflammatory activity result in data set [2] is reported as “anti-inflammatory activity”. Moreover, the hypotensive activity entry in the data set on blood pressure is on record as “hypotensive activity”. The minimal effective dose in data set [1] (setting [3]) was found to be 25.6 mg/kg.

`O=C(NC1CCN(CCCC(O)c2ccc3c(c2)CCCC3)CC1)c1ccccc1` (stereo not shown) [Example 79, 1-[4-(1',2',3',4'-Tetrahydro-6'-naphthyl)-4-hydroxybutyl]-4-benzamidopiperidine]: the Kb on histamine (setting [4]) was 100 nM. In addition, the “α-blockade pA2” value in the data set on α-adrenoceptor came out at 6.05. In addition, the hypotensive activity result in the data set on blood pressure was “hypotensive activity”. Further, the minimal effective dose in data set [1] (setting [3]) is 1.6 to 3.2 mg/kg.

Consider `Cc1ccc(C)c(C(=O)CCCN2CCC(NC(=O)c3ccccc3)CC2)c1` [Example 44, 4-Benzamido-1-[4-(2,5-dimethylphenyl)-4-oxobutyl]piperidine], for which the Kb on histamine (setting [4]) was 20 nM. Moreover, the antihistamine activity result at histamine is on record as “antihistamine”. Further, in the data set on α-adrenoceptor, the “α-blockade pA2” value amounted to 7.5 and the α-adrenoceptor antagonism entry is “α-adrenoceptor antagonist activities”. For the same compound, the hypotensive activity result with blood pressure is given as “hypotensive activity”. Besides, the minimal effective dose in data set [1] (setting [3]) was 1.6 to 3.2 mg/kg.

`O=C(NC1CCN(CCc2ccc(O)c(O)c2)CC1)c1ccccc1` [Example 9, 1-[2(3,4-Dihydroxyphenyl)ethyl]-4-benzamidopiperidine]: at histamine, the antihistamine activity result is recorded as “antihistamine”. In addition, the depressant activity result in the data set “Depressant activity” is “depressant activity”. Besides, the minimal effective dose in data set [1] (setting [3]) is less than 30 mg/kg.

Turning to `O=C(NC1CCN(CC2COc3ccccc3O2)CC1)c1ccccc1` (stereo not shown) [Example 102, 2-(4'-Benzamidopiperid-1-yl)methylbenzo-1,4-dioxan], the anti-inflammatory activity entry in data set [2] is “anti-inflammatory activity”. In addition, in the data set with blood pressure, the hypotensive activity result is on record as “marked hypotensive activity”.

Turning to `Nc1ccccc1CCN1CCC(NC(=O)c2ccccc2)CC1` [Example 35, 1-[2-(o-Aminophenyl)ethyl]-4-benzamidopiperidine], the depressant activity entry in “Depressant activity” was “depressant activities”. Besides, in the data set with blood pressure, the hypotensive activity entry is “hypotensive”. Besides, in data set [1] (setting [3]), the minimal effective dose is 6.4 to 12.8 mg/kg.

For the compound `O=C(NC1CCN(CCc2cccc3ccccc23)CC1)c1ccccc1` [Example 12, 1-[2-(1-Naphthyl)ethyl]-4-benzamidopiperidine], the depressant activity entry in the data set “Depressant activity” was “depressant activity”. In addition, the minimal effective dose in data set [1] (setting [3]) was less than 30 mg/kg.

As for `O=C(NC1CCN(CC(O)COc2cccc3ccccc23)CC1)c1ccccc1` (stereo not shown) [Example 21, 1-[3-(1-Naphthoxy)-2-hydroxyprop-1-yl]-4-benzamidopiperidine], the depressant activity entry in the data set “Depressant activity” is on record as “some depressant activity”. Moreover, in the data set on blood pressure, the hypotensive activity entry is on record as “hypotensive activity”. In data set [1] (setting [3]), the minimal effective dose lay within 6.4 to 12.8 mg/kg.

In turn, `O=C(NC1CCN(CCc2ccccc2)CC1)c1ccccc1` [Example 27, 1-Phenethyl-4-benzamidopiperidine] showed a Kb at histamine (Table 2) of 79.4 nM. The “pA2 (α-adrenoceptor antagonism)” value with α-adrenoceptor (guinea pig aortic strip) was 5.7. Further, the hypotensive activity entry with blood pressure is “hypotensive activity”. Further, the figures for the minimal effective dose in data set [1] (setting [3]) and in data set [1] (read-out: Significant hypotension (dose; fall of 30 mm mercury or more in diastolic pressure)) were 1.6 to 3.2 mg/kg and 3.2 mg/kg, respectively. Moreover, the “Fatal (dose)” value in data set [1] (anaesthetised rat, i.v., cumulative dose) was 12.8 to 25.6 mg/kg.

For the compound `O=C(CCCN1CCC(NC(=O)c2ccccc2)CC1)c1ccc(Cl)cc1` [Example 51, 4-Benzamido-1-[4-(p-chlorophenyl)-4-oxobutyl]piperidine], the anti-inflammatory activity entry in data set [2] is reported as “anti-inflammatory activity”. In addition, on histamine (setting [4]), the Kb is 20 nM. The antihistamine activity result on histamine was “anti-histamine”. Besides, in the data set on α-adrenoceptor, the “α-blockade pA2” value was 8.4 and the α-adrenoceptor antagonism entry is listed as “highly potent α-adrenoceptor antagonist activity”. The hypotensive activity result in the data set with blood pressure was “hypotensive activity”. The minimal effective dose in data set [1] (setting [3]) fell in the range of 6.4 to 12.8 mg/kg.

Source of the values: patent US4029801A, “Pharmaceutical compositions and methods of treating hypertension” (priority 1970, dated 1977).
